Assay results reported in PubChem BioAssay (NCI).
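Five concentrations, 48 hours, 96-well plates. GI50 is the concentration that inhibits growth by half. TGI marks complete inhibition of growth.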

Assays:
Assay in all cases: NCI-60 cell line screen, 48 h
[1] = tested on: NCI/ADR-RES ovarian
[2] = tested on: MDA-MB-435
[3] = tested on: NCI-H460 lung
[4] = tested on: CCRF-CEM leukemia
[5] = tested on: SK-MEL-2 melanoma
[6] = tested on: HCT-15 colon
[7] = tested on: HOP-62 NSCLC
[8] = tested on: OVCAR-3 ovarian
[9] = tested on: U251 CNS
[10] = tested on: LOX IMVI melanoma
[11] = tested on: IGROV1 ovarian
[12] = tested on: SF-539 CNS
[13] = tested on: TK-10 renal
[14] = tested on: HS 578T breast
[15] = tested on: EKVX NSCLC
[16] = tested on: OVCAR-8 ovarian
[17] = tested on: NCI-H226 lung
[18] = tested on: NCI-H23 lung
[19] = tested on: UO-31 renal
[20] = tested on: SK-MEL-28 melanoma
[21] = tested on: SNB-75 CNS
[22] = tested on: SR leukemia
[23] = tested on: PC-3 prostate
[24] = tested on: M14 melanoma
[25] = tested on: A498 renal
[26] = tested on: HT29 colon
[27] = tested on: COLO 205 colon
[28] = tested on: T-47D breast
[29] = tested on: SF-268 CNS

In the case of `C[C@@H](Oc1cc(-n2cnc3ccc(OCC4CCN(C)CC4)cc32)sc1C(N)=O)c1ccccc1Cl`, the GI50 [1] is reported as 258 nM, the TGI [1] is reported as 2400 nM and the GI50 [2] is reported as 12.6 nM. The TGI [2] was 64.3 nM, the GI50 [3] was 84.6 nM and the TGI [3] was 3040 nM. It also gave a GI50 [4] of 9.65 nM, a TGI [4] of 856 nM and a GI50 [5] of 55.9 nM. For the same molecule, the TGI [5] was 4130 nM, the GI50 [6] was 99.8 nM and the TGI [6] was 3390 nM. It also gave a GI50 [7] of 97.7 nM, a TGI [7] of 3550 nM and a GI50 [8] of 57.7 nM. It also gave a TGI [8] of 2970 nM, a GI50 [9] of 106 nM and a TGI [9] of 3860 nM. It also gave a GI50 [10] of 92.6 nM, a TGI [10] of 3600 nM and a GI50 [11] of 129 nM. For the same molecule, the TGI [11] was 4900 nM, the GI50 [12] was 107 nM and the TGI [12] was 1620 nM. For the same molecule, the GI50 [13] was 583 nM, the TGI [13] was 5130 nM and the GI50 [14] was 75.9 nM. The TGI [14] was 502 nM, the GI50 [15] was 158 nM and the TGI [15] was 4960 nM. For the same molecule, the GI50 [16] was 79.3 nM, the TGI [16] was 3110 nM and the GI50 [17] was 674 nM. For the same molecule, the TGI [17] was 4810 nM, the GI50 [18] was 103 nM and the TGI [18] was 3640 nM. It also gave a GI50 [19] of 616 nM, a TGI [19] of 3960 nM and a GI50 [20] of 165 nM. It also gave a TGI [20] of 4620 nM, a GI50 [21] of 89.8 nM and a TGI [21] of 1810 nM. The GI50 [22] was 44.8 nM, the TGI [22] was 697 nM and the GI50 [23] was 136 nM. The TGI [23] was 4420 nM, the GI50 [24] was 56.1 nM and the TGI [24] was 3120 nM. It also gave a GI50 [25] of 92.7 nM, a TGI [25] of 713 nM and a GI50 [26] of 10.8 nM. For the same molecule, the TGI [26] was 2680 nM, the GI50 [27] was 16.5 nM and the TGI [27] was 631 nM. It also gave a GI50 [28] of 2860 nM, a TGI [28] of 6300 nM and a GI50 [29] of 112 nM. It also gave a TGI [29] of 4070 nM.
